Results taken from PubChem BioAssay AID2060507 (Molecular Pharmacology Branch, DTP, NCI, 2025).

Test system: 519858-162-T-J1-PDC complex spheroid viability
Experiment: Anticancer human tumor 519858-162-T-J1-PDC patient-derived colon adenocarcinoma cell line growth inhibition [GQUAD]
Details: for IC50: curve of first compound; for viability, T/C: stronger effect = lower value
Source text: DNA G-quadruplex Stabilizer Agents in Combinations in Complex Spheroids
A high-throughput screen of multi-cell type tumor spheroids was designed to identify active combinations of DNA G-quadruplex stabilizer agents and targeted small molecules. Complex spheroids include a stromal component modeled by human endothelial cells (HUVEC) and fibroblasts modeled by human mesenchymal stem cells (MSCs). The concentration ranges selected for each drug and investigational agent were based upon clinically achievable concentrations if the clinical Cmax of the agent was known.
Compounds. The drugs and investigational agents: pidnarulex (CX-5461; NSC782164), APTO-253 (NSC789042), BRACO-19 (NSC847499), peposertib (NSC802822), ceralasertib (NSC780249), elimusertib (NSC800525), camonsertib (NSC841442), AZD-1390 (NSC803789), olaparib (NSC753686), talazoparib (NSC767125), ART-558 (NSC835418), sotorasib (NSC818433), MRTX-1133 (NSC836407), SN-38 (NSC673596), topotecan (NSC609699), etoposide (NSC141540), doxorubicin (NSC123127), gemcitabine (NSC613327), 5-fluorouracil (NSC19893), paclitaxel (NSC125973), vemurafenib (NSC761431), panobinostat (NSC761190), R-306465 (JNJ-16241199; NSC773264), adavosertib (NSC754352), TP-3654 (NSC805149), carboplatin (NSC241240), KSQ-4279 (NSC840948), and staurosporine (NSC755774) were obtained from the National Cancer Institute (NCI) Developmental Therapeutics Program Chemical Repository (34). The FDA-approved anticancer drug set is available from the NCI Developmental Therapeutics Program. […] The stock solutions were prepared in dimethyl sulfoxide (DMSO, Sigma-Aldrich, St. Louis, MO, cat. D2650) at 800-fold the tested concentration and stored at -70 degrees C prior to their use. All drugs and investigational agents were tested over a range starting from a high concentration at or near the clinical Cmax and decreasing in half-log increments. If the clinical Cmax for an agent had not been determined, the highest concentration tested was 10 microM.
2.3 Cell Culture. All cells were maintained in an incubator at 37 degrees C and 5% CO2 with 95% humidity. The PDC lines were cultured according to standard operating procedures established by the NCI PDMR. All PDCs were thawed and cultured in Matrigel-coated flasks prepared with a working solution of 1X Ham's F-12 nutrient mix, without supplementation (Invitrogen, cat. 11765054), 100 U/mL penicillin-streptomycin (Invitrogen, cat. 15140122), and 2.5% Matrigel (Corning Inc., cat. 354248) for the first three passages. The 857933-349-R-J2-PDC line was cultured in 6C/Colon 1B media, which includes advanced DMEM/F-12 (Thermo Fisher Scientific, cat. 12634028), 10 mM HEPES (Thermo Fisher Scientific, cat. 15630080), 1X GlutaMAX supplement (Thermo Fisher Scientific, cat. 35050061), 0.1 mg/mL primocin (InvivoGen, cat. ant-pm-2), 10% defined fetal bovine serum, heat inactivated (HyClone Laboratories Inc., cat. SH30070.03HI), 50% L-WRN conditioned media (ATCC, cat. CRL-3276), 1.25 mM N-Acetyl-L-cysteine (Sigma-Aldrich, cat. A9165), 10 mM nicotinamide (Sigma-Aldrich, cat. N0636), 1X B-27 supplement (Thermo Fisher Scientific, cat. 17504044), 1X N-2 supplement (Thermo Fisher Scientific, cat. 17502048), 10 microM Y-27632 dihydrochloride (Tocris Bioscience, cat. 1254), and 50 ng/mL human EGF recombinant protein (Thermo Fisher Scientific, cat. PHG0311). The 485176-168-R4-J1-PDC line was cultured in Panc media, which includes all 6C/Colon 1B media components plus 100 ng/mL human FGF-10 (Thermo Fisher Scientific, cat. 100-26), 500 nM SB-431542 (Selleckchem, cat. S1067), and gastrin (Tocris, cat. 3006).
[…]

[1] = second compound 0.0316 µM, first compound 0.0316 µM
[2] = second compound 0.0316 µM, first compound 0.1 µM
[3] = second compound 0.0316 µM, first compound 0.316 µM
[4] = second compound 0.0316 µM, first compound 1 µM
[5] = second compound 0.0316 µM, first compound 3.16 µM
[6] = second compound 0.0316 µM, first compound 10 µM
[7] = second compound 0.1 µM, first compound 0.0316 µM
[8] = second compound 0.1 µM, first compound 0.1 µM
[9] = second compound 0.1 µM, first compound 0.316 µM
[10] = second compound 0.1 µM, first compound 1 µM
[11] = second compound 0.1 µM, first compound 3.16 µM
[12] = second compound 0.1 µM, first compound 10 µM
[13] = second compound 0.316 µM, first compound 0.0316 µM
[14] = second compound 0.316 µM, first compound 0.1 µM
[15] = second compound 0.316 µM, first compound 0.316 µM
[16] = second compound 0.316 µM, first compound 1 µM
[17] = second compound 0.316 µM, first compound 3.16 µM
[18] = second compound 0.316 µM, first compound 10 µM
[19] = second compound 1 µM, first compound 0.0316 µM
[20] = second compound 1 µM, first compound 0.1 µM
[21] = second compound 1 µM, first compound 0.316 µM
[22] = second compound 1 µM, first compound 1 µM
[23] = second compound 1 µM, first compound 3.16 µM
[24] = second compound 1 µM, first compound 10 µM
[25] = second compound 3.16 µM, first compound 0.0316 µM
[26] = second compound 3.16 µM, first compound 0.1 µM
[27] = second compound 3.16 µM, first compound 0.316 µM
[28] = second compound 3.16 µM, first compound 1 µM
[29] = second compound 3.16 µM, first compound 3.16 µM
[30] = second compound 3.16 µM, first compound 10 µM
[31] = second compound 10 µM, first compound 0.0316 µM
[32] = second compound 10 µM, first compound 0.1 µM
[33] = second compound 10 µM, first compound 0.316 µM
[34] = second compound 10 µM, first compound 1 µM
[35] = second compound 10 µM, first compound 3.16 µM
[36] = second compound 10 µM, first compound 10 µM
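Also: spheroids exposed to compounds for 7 days.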
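For viability, T/C in this document: 100% = DMSO vehicle control viability.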

Compound: COc1cc(C2c3cc4c(cc3C(OC3OC5COC(C)OC5C(O)C3O)C3COC(=O)C23)OCO4)cc(OC)c1O (centres undefined) + Cc1cnc(CNC(=O)c2c(=O)c3ccc(N4CCCN(C)CC4)nc3n3c2sc2ccccc23)cn1
- IC50 (second compound 0.0316 µM): > 10 µM
- IC50 (second compound 0.1 µM): > 10 µM
- IC50 (second compound 0.316 µM): 8.09 µM
- IC50 (second compound 1 µM): > 10 µM
- IC50 (second compound 3.16 µM): 5.35 µM
- IC50 (second compound 10 µM): < 0.0316 µM
- viability, T/C [1]: 90%
- viability, T/C [2]: 94.6%
- viability, T/C [3]: 94.9%
- viability, T/C [4]: 105%
- viability, T/C [5]: 59.7%
- viability, T/C [6]: 83.3%
- viability, T/C [7]: 93.7%
- viability, T/C [8]: 115%
- viability, T/C [9]: 86.5%
- viability, T/C [10]: 79.9%
- viability, T/C [11]: 80.4%
- viability, T/C [12]: 64.4%
- viability, T/C [13]: 59%
- viability, T/C [14]: 69.9%
- viability, T/C [15]: 103%
- viability, T/C [16]: 63.8%
- viability, T/C [17]: 71.9%
- viability, T/C [18]: 45.1%
- viability, T/C [19]: 80.4%
- viability, T/C [20]: 51.6%
- viability, T/C [21]: 62%
- viability, T/C [22]: 58.7%
- viability, T/C [23]: 55.2%
- viability, T/C [24]: 61.8%
- viability, T/C [25]: 57%
- viability, T/C [26]: 60.3%
- viability, T/C [27]: 66.5%
- viability, T/C [28]: 55.7%
- viability, T/C [29]: 49.5%
- viability, T/C [30]: 47.7%
- viability, T/C [31]: 52.8%
- viability, T/C [32]: 40.8%
- viability, T/C [33]: 56.4%
- viability, T/C [34]: 41%
- viability, T/C [35]: 42.5%
- viability, T/C [36]: 74.1%

Compound: COc1ccc([C@@H](O)c2cc(-c3ncnc4cc(N5CCOCC5)ccc34)c(F)cc2Cl)nn1 + Cc1cnc(CNC(=O)c2c(=O)c3ccc(N4CCCN(C)CC4)nc3n3c2sc2ccccc23)cn1
- IC50 (second compound 0.0316 µM): 10 µM
- IC50 (second compound 0.1 µM): 3.66 µM
- IC50 (second compound 0.316 µM): 4.18 µM
- IC50 (second compound 1 µM): 9.07 µM
- IC50 (second compound 3.16 µM): 0.243 µM
- IC50 (second compound 10 µM): < 0.0316 µM
- viability, T/C [1]: 72.4%
- viability, T/C [2]: 102%
- viability, T/C [3]: 81.6%
- viability, T/C [4]: 99.3%
- viability, T/C [5]: 48.9%
- viability, T/C [6]: 53%
- viability, T/C [7]: 75.6%
- viability, T/C [8]: 70.5%
- viability, T/C [9]: 62.8%
- viability, T/C [10]: 50.8%
- viability, T/C [11]: 55.1%
- viability, T/C [12]: 44.8%
- viability, T/C [13]: 109%
- viability, T/C [14]: 72.9%
- viability, T/C [15]: 80%
- viability, T/C [16]: 56.1%
- viability, T/C [17]: 41.7%
- viability, T/C [18]: 52%
- viability, T/C [19]: 56.7%
- viability, T/C [20]: 49.9%
- viability, T/C [21]: 48.1%
- viability, T/C [22]: 47.9%
- viability, T/C [23]: 67.3%
- viability, T/C [24]: 41%
- viability, T/C [25]: 58.4%
- viability, T/C [26]: 62.2%
- viability, T/C [27]: 46.9%
- viability, T/C [28]: 30%
- viability, T/C [29]: 34.8%
- viability, T/C [30]: 45.9%
- viability, T/C [31]: 36.6%
- viability, T/C [32]: 33.5%
- viability, T/C [33]: 49.3%
- viability, T/C [34]: 35.2%
- viability, T/C [35]: 47.7%
- viability, T/C [36]: 37.7%
